Results taken from US6924414B2, “Muir-torre-like syndrome in Fhit deficient mice” (Thomas Jefferson University, priority 2000, dated 2005).
Where “and” joins values, the source holds several entries; their conditions need not be identical. Identical values can stand only once. Entries after “also recorded” stand apart in the source; their conditions may differ. Marks after values point to notes of the source that are not given here.

How the values were obtained:
[1] = tested on: Fhit +/+ mice; experiment: Carcinogenicity study: NMBA tumor induction in Fhit +/+ mice; assay type: in vivo, mouse (C57BL/6J X 129/SvJ) F1
Protocol: (§1) (C57BL/6J X 129/SvJ) F1 mice (B6129F1s) that were Fhit +/+ or +/− were produced. 18 Fhit +/+ and 22 Fhit +/− mice (30-46 weeks) were given 8 intragastric doses of NMBA (Ash Stevens, Detroit, Mich.) over the course of 3 weeks at 2 mg/kg body weight. About half the mice were sacrificed six weeks after the final NMBA dose and the remaining mice at ten weeks. Tumor incidence differences were analyzed by two-tailed Fisher's exact test (Armitage and Berry, 1987, Statistical Methods in Medical Research, 2nd Ed., Blackwell Scientific, Oxford). For comparison, four untreated Fhit +/− mice (54-59 weeks old) and one untreated Fhit +/+ mouse (59 weeks old) were similarly autopsied. At autopsy, whole esophagi and stomachs were removed and opened longitudinally. Other tissues with apparent tumors were also examined. The number of animals bearing tumors in the esophagus, forestomach, squamocolumnar junction with the glandular stomach (SCJ) and other tissues were scored. Tissues were fixed in buffered formalin and examined histologically after hematoxylin and eosin (H&E) staining for the presence of hyperkeratosis, parakeratosis, dysplasia, papillomas, adenomas and carcinomas.

[2] = tested on: esophageal and forestomach tumors; conditions: administered by gavage or in the drinking water; cited from earlier work
[3] = tested on: Fhit +/− mice; experiment: Carcinogenicity study: NMBA tumor induction in Fhit +/− mice; assay type: in vivo, mouse (C57BL/6J X 129/SvJ) F1
Protocol: as §1

[4] = tested on: Fhit exons 4 through 9; experiment: Fhit sequence analysis of NMBA-induced tumors; set-up: species or system mouse; conditions: DNA from sebaceous tumors of mice 21, 27, 31 and squamous papillomas of mice 25, 27
Text: Primer pairs flanking each of the human FHIT exons (Druck et al., […], Cancer Res. 57:504-512) and the mouse FHIT coding exons were used in PCR amplification of DNA from MTS cases or mouse tumors, respectively. Primer pairs surrounding the mouse FHIT exons were previously published (Pekarsky et al., 1998, Cancer Res. 58:3401-3408) for exons 5 and 6 or newly designed […]
The products were purified with a PCR purification kit (Qiagen) before sequencing using Taq DyeDeoxy Terminator Cycle Sequencing Kits (ABI). Sequencing reaction products were electrophoresed and recorded on a 377 DNA sequencer (ABI). Southern Blot Analysis

[5] = Fhit +/+, individual mice, 10 weeks after NMBA, T = tumors
[6] = Fhit +/−, individual mice, 10 weeks after NMBA, T = tumors

Q: Which “Fraction of tumor bearing animals, Fore stomach” value (from here on “Fraction … Fore stomach”) ([1]; 6 wk post-treatment, Fhit +/+) does the source give for N-nitrosomethylbenzylamine [NMBA] here?
A: 1/10

Q: And the “Fraction of tumor bearing animals, SCJ” value ([1]; 6 wk post-treatment, Fhit +/+)?
A: 0/10

Q: And the “Tumor Bearing Mice” value ([1]; 6 wk post-treatment, Fhit +/+)?
A: 2/10

Q: And the “Fraction of tumor bearing animals, Esoph” value ([1]; 6 wk post-treatment, Fhit +/+, number of mice with tumors/number of mice, 8 intragastric doses 2 mg/kg)?
A: 1/10

Q: What about the “Fraction of tumor bearing animals, Esoph” value ([1]; 10 wk post-treatment, Fhit +/+) of the same substance?
A: 0/8

Q: What about the “Fraction … Fore stomach” value ([1]; 10 wk post-treatment, Fhit +/+) of the same substance?
A: 1/8

Q: And the “Fraction of tumor bearing animals, SCJ” value ([1]; 10 wk post-treatment, Fhit +/+)?
A: 1/8

Q: What about the “Fraction of tumor bearing animals, Sebaceous” value ([1]; 10 wk post-treatment, Fhit +/+) of the same substance?
A: 0/8

Q: What about the “Tumor Bearing Mice” value ([1]; 10 wk post-treatment, Fhit +/+) of the same substance?
A: 2/8

Q: And the Extragastric tumors ([1]; Fhit +/+ mice)?
A: not observed

Q: What about the “Comments (by histology)” value ([1]; Fhit +/+, individual mice, 10 weeks after NMBA) of the same substance?
A: sq papillomas; also recorded: papillary hyperplasia, esophagus; also recorded: adenoma

Q: What about the “Phenotype Esoph.” value [1, 5] of the same substance?
A: thick

Q: What about the “Phenotype Forestomach” value [1, 5] of the same substance?
A: thick; also recorded: sm. T

Q: What about the “Phenotype SCJ” value [1, 5] of the same substance?
A: thick and 7T+3 mm

Q: And the “body wt. (amount of wt. change during the experiment)” value ([1]; Fhit +/+, individual mice, 10 weeks after NMBA, given with ↑)?
A: ↑1 g and ↑4 g (3×) and ↑6 g and ↑3 g (2×) and ↑2 g

Q: What about the “Mice developing sebaceous tumors” value ([1]; NMBA treated Fhit +/+ mice) of the same substance?
A: none

Q: What about the “Esophageal squamous papilloma by histological examination” value ([1]; six weeks after NMBA, Fhit +/+) of the same substance?
A: 1/10

Q: What about the “Mice showing a very small tumor of the esophagus or forestomach on inspection” value ([1]; six weeks after treatment, Fhit +/+) of the same substance?
A: two of ten

Q: And the Mice with tumors ([1]; six weeks post NMBA, Fhit +/+, histology)?
A: 20%

Q: What about the “Tumor burden (mice exhibiting tumors)” value ([1]; ten weeks post NMBA, Fhit +/+) of the same substance?
A: 25%

Q: What about the “Mice exhibiting tumors on inspection” value ([1]; ten weeks, Fhit +/+) of the same substance?
A: two of eight

Q: What about the Tumor induction [2] of the same substance?
A: induce both esophageal and forestomach tumors

Q: And the “Fraction … Fore stomach” value ([3]; 6 wk post-treatment, Fhit +/−)?
A: 5/10

Q: And the “Fraction of tumor bearing animals, SCJ” value ([3]; 6 wk post-treatment, Fhit +/−)?
A: 4/10

Q: And the “Tumor Bearing Mice” value ([3]; 6 wk post-treatment, Fhit +/−)?
A: 7/10

Q: And the “Fraction of tumor bearing animals, Esoph” value ([3]; 6 wk post-treatment, Fhit +/−, 1 esophagus showed dysplasia)?
A: 0/10^b

Q: And the “Fraction of tumor bearing animals, Esoph” value ([3]; 10 wk post-treatment, Fhit +/−)?
A: 2/12

Q: What about the “Fraction … Fore stomach” value ([3]; 10 wk post-treatment, Fhit +/−) of the same substance?
A: 10/12

Q: What about the “Fraction of tumor bearing animals, SCJ” value ([3]; 10 wk post-treatment, Fhit +/−) of the same substance?
A: 5/12

Q: And the “Fraction of tumor bearing animals, Sebaceous” value ([3]; 10 wk post-treatment, Fhit +/−)?
A: 7/12

Q: And the “Tumor Bearing Mice” value ([3]; 10 wk post-treatment, Fhit +/−)?
A: 12/12

Q: What about the “Comments (by histology)” value ([3]; Fhit +/−, individual mice, 10 weeks after NMBA) of the same substance?
A: sq. carcinoma forestomach, sq. pap. SCJ; also recorded: sq. pap. forestomach, Barretts-like gastric mucosa SCJ; also recorded: sq. pap. and adenoma forestomach; also recorded: sq. pap. and sq. carcinoma forestomach; also recorded: sq. pap. esoph, forestomach, SCJ; also recorded: sebaceous adnexal tumor; also recorded: sq. pap. esoph and forestomach, seb. tumor; also recorded: sq. pap. forestomach, sebaccous tumor; also recorded: hyperplastic gastric mucosa, SCJ sq. pap. seb. tumor; also recorded: forestomach sq. papillomas; sebaceous tumor

Q: And the “Phenotype Forestomach” value [3, 6]?
A: 2T and few sm. T and multiple T (3×) and T.2-3 mm

Q: And the “Phenotype SCJ” value [3, 6]?
A: few T; also recorded: multiple T

Q: And the “body wt. (amount of wt. change during the experiment)” value ([3]; Fhit +/−, individual mice, 10 weeks after NMBA, given with ↑)?
A: ↑3 g (2×) and ↑2 g (3×) and ↑4 g (4×) and ↑8 g (2×) and ↑6 g

Q: What about the “Mice with large (>5×5 mm) sebaceous tumors” value ([3]; NMBA treated Fhit +/− mice under 1 yr. of age) of the same substance?
A: 5 of 12

Q: What about the “Mice with one or more subcutis tumors in abdominal, mammary or axial area on autopsy” value ([3]; autopsy at 10 weeks, Fhit +/−) of the same substance?
A: more than 50%

Q: And the “Mice developing a spectrum of visceral and skin tumors” value ([3]; by ten weeks after NMBA exposure, Fhit +/−)?
A: all

Q: What about the “Mice showing tumors in the subcutis of the abdomen (visible before autopsy)” value ([3]; by ten weeks after the final dose, Fhit +/−) of the same substance?
A: three

Q: And the “Mice showing one or more small tumors on inspection of whole esophagus and stomach” value ([3]; six weeks after treatment, Fhit +/−)?
A: seven of ten

Q: What about the Mice with tumors ([3]; six weeks post NMBA, Fhit +/−, histology) of the same substance?
A: 70%

Q: What about the “Tumor burden (mice exhibiting tumors)” value ([3]; ten weeks post NMBA, Fhit +/−) of the same substance?
A: 100%

Q: What about the “Mice showing apparent tumors in forestomach, squamocolumnar junction and/or other tissues” value ([3]; ten weeks, Fhit +/−, inspection) of the same substance?
A: eleven of twelve

Q: And the “NMBA-induced mutations within Fhit exons 4 through 9” value [4]?
A: No mutations were detected
